Assay results reported in patent US20040005354A1, “Oral trimethobenzamide formulations and methods” (King Pharmaceuticals, Inc., priority 2002, published 2004).
Read-outs that look alike come from different tables or passages of the source.

Legend:
[1] = Safety assessment (adverse events, laboratory tests) in the four-way crossover study; assay type: in vivo, human (healthy subjects)
Text: Seventy-four healthy, non-smoking, male & female subjects, 18-65 years old were enrolled in this study. A total of 68 subjects completed all the requirements of the protocol. There were no enrollment violations. However, nine of the 74 subjects began the study during the third period of the initial group of subjects. All 74 subjects who received at least one dose of study medication were included in the safety analysis.
This study was a single center, randomized, open-label, 4-way crossover study in healthy subjects. Dosing was administered in the fasted state. Seventy-four (74) subjects were randomized into the study. All seventy-four subjects received one or more doses of study medication and are therefore included in the safety assessment. On Treatment Day 1 of the first treatment period, each subject was randomized to receive one of four possible study treatment sequences. The treatment groups consisted of the four treatments administered sequentially as DCAB, ADBC, BACD or CBDA. These treatments are shown below.
A signed informed consent was obtained from each subject. For screening purposes, the following procedures were required of each subject and were performed by the clinical site within 30 days prior to the study: a complete physical examination including a medical history, vital signs, clinical laboratory safety tests on blood and urine, medications taken prior to and during the study, and a serum pregnancy test for female subjects.
During the treatments, temperature, blood pressure, heart rate and respiratory rate were monitored as a safety measure. A physical examination and clinical laboratory tests were repeated at the completion of the study. Subjects were observed and questioned throughout the study for the occurrence of any adverse events.
A total of 28 adverse events (AEs) were experienced; 27 were treatment emergent. Twenty-one (21) of these were assessed as related to study treatment. All related AEs are known to occur with trimethobenzamide and were primarily mild or moderate in intensity. One (1) severe AE occurred in one subject which was judged as unrelated to study treatment-severe pharyngitis. […] A summary of treatment emergent adverse events (AEs) is presented in Table 6 using the preferred medical term.

[2] = cited from earlier work
[3] = in 48-72 hr; cited from earlier work

Substance: N-[2-(dimethylamino)-ethoxy]-3,4,5-trimethoxybenzamide hydrochloride [trimethobenzamide hydrochloride]
- PHARYNGITIS, subjects % ([1]; sequence B A C D (N = 18)): 0.0%
- PHARYNGITIS, subjects n ([1]; sequence B A C D (N = 18)): 0
- RASH, subjects % ([1]; sequence B A C D (N = 18)): 5.6%
- RASH, subjects n ([1]; sequence B A C D (N = 18)): 1
- ABDOMINAL PAIN, subjects % ([1]; sequence C B D A (N = 18)): 0.0%
- ABDOMINAL PAIN, subjects n ([1]; sequence C B D A (N = 18)): 0
- CONJUNCTIVITIS, subjects % ([1]; sequence C B D A (N = 18)): 0.0%
- CONJUNCTIVITIS, subjects n ([1]; sequence C B D A (N = 18)): 0
- DIARRHEA, subjects % ([1]; sequence C B D A (N = 18)): 5.6%
- DIARRHEA, subjects n ([1]; sequence C B D A (N = 18)): 1
- DIZZINESS, subjects % ([1]; sequence C B D A (N = 18)): 0.0%
- DIZZINESS, subjects n ([1]; sequence C B D A (N = 18)): 0
- EDEMA, PALMAR, subjects % ([1]; sequence C B D A (N = 18)): 0.0%
- EDEMA, PALMAR, subjects n ([1]; sequence C B D A (N = 18)): 0
- ERYTHEMA, EXTERNAL NOSE, subjects % ([1]; sequence C B D A (N = 18)): 5.6%
- ERYTHEMA, EXTERNAL NOSE, subjects n ([1]; sequence C B D A (N = 18)): 1
- ERYTHEMA, PALMAR, subjects % ([1]; sequence C B D A (N = 18)): 0.0%
- ERYTHEMA, PALMAR, subjects n ([1]; sequence C B D A (N = 18)): 0
- HEADACHE, subjects % ([1]; sequence C B D A (N = 18)): 16.7%
- HEADACHE, subjects n ([1]; sequence C B D A (N = 18)): 3
- HYPOTONIA, subjects % ([1]; sequence C B D A (N = 18)): 5.6%
- HYPOTONIA, subjects n ([1]; sequence C B D A (N = 18)): 1
- INJECTION SITE REACTION, subjects % ([1]; sequence C B D A (N = 18)): 0.0%
- INJECTION SITE REACTION, subjects n ([1]; sequence C B D A (N = 18)): 0
- LARYNGISMUS, subjects % ([1]; sequence C B D A (N = 18)): 0.0%
- LARYNGISMUS, subjects n ([1]; sequence C B D A (N = 18)): 0
- LEG CRAMPS, subjects % ([1]; sequence C B D A (N = 18)): 0.0%
- LEG CRAMPS, subjects n ([1]; sequence C B D A (N = 18)): 0
- NAUSEA AND VOMITING, subjects % ([1]; sequence C B D A (N = 18)): 0.0%
- NAUSEA AND VOMITING, subjects n ([1]; sequence C B D A (N = 18)): 0
- NAUSEA, subjects % ([1]; sequence C B D A (N = 18)): 0.0%
- NAUSEA, subjects n ([1]; sequence C B D A (N = 18)): 0
- Number of Subject With At Least one AE, % ([1]; sequence C B D A (N = 18)): 22.2%
- Number of Subject With No AE, % ([1]; sequence C B D A (N = 18)): 77.8%
- PARESTHESIA, subjects % ([1]; sequence C B D A (N = 18)): 0.0%
- PARESTHESIA, subjects n ([1]; sequence C B D A (N = 18)): 0
- PHARYNGITIS, subjects % ([1]; sequence C B D A (N = 18)): 0.0%
- PHARYNGITIS, subjects n ([1]; sequence C B D A (N = 18)): 0
- RASH, subjects % ([1]; sequence C B D A (N = 18)): 0.0%
- RASH, subjects n ([1]; sequence C B D A (N = 18)): 0
- ABDOMINAL PAIN, subjects % ([1]; sequence D C A B (N = 18)): 0.0%
- ABDOMINAL PAIN, subjects n ([1]; sequence D C A B (N = 18)): 0
- CONJUNCTIVITIS, subjects % ([1]; sequence D C A B (N = 18)): 0.0%
- CONJUNCTIVITIS, subjects n ([1]; sequence D C A B (N = 18)): 0
- DIARRHEA, subjects % ([1]; sequence D C A B (N = 18)): 0.0%
- DIARRHEA, subjects n ([1]; sequence D C A B (N = 18)): 0
- DIZZINESS, subjects % ([1]; sequence D C A B (N = 18)): 0.0%
- DIZZINESS, subjects n ([1]; sequence D C A B (N = 18)): 0
- EDEMA, PALMAR, subjects % ([1]; sequence D C A B (N = 18)): 0.0%
- EDEMA, PALMAR, subjects n ([1]; sequence D C A B (N = 18)): 0
- ERYTHEMA, EXTERNAL NOSE, subjects % ([1]; sequence D C A B (N = 18)): 0.0%
- ERYTHEMA, EXTERNAL NOSE, subjects n ([1]; sequence D C A B (N = 18)): 0
- ERYTHEMA, PALMAR, subjects % ([1]; sequence D C A B (N = 18)): 0.0%
- ERYTHEMA, PALMAR, subjects n ([1]; sequence D C A B (N = 18)): 0
- HEADACHE, subjects % ([1]; sequence D C A B (N = 18)): 16.7%
- HEADACHE, subjects n ([1]; sequence D C A B (N = 18)): 3
- HYPOTONIA, subjects % ([1]; sequence D C A B (N = 18)): 0.0%
- HYPOTONIA, subjects n ([1]; sequence D C A B (N = 18)): 0
- INJECTION SITE REACTION, subjects % ([1]; sequence D C A B (N = 18)): 0.0%
- INJECTION SITE REACTION, subjects n ([1]; sequence D C A B (N = 18)): 0
- LARYNGISMUS, subjects % ([1]; sequence D C A B (N = 18)): 0.0%
- LARYNGISMUS, subjects n ([1]; sequence D C A B (N = 18)): 0
- LEG CRAMPS, subjects % ([1]; sequence D C A B (N = 18)): 5.6%
- LEG CRAMPS, subjects n ([1]; sequence D C A B (N = 18)): 1
- NAUSEA AND VOMITING, subjects % ([1]; sequence D C A B (N = 18)): 0.0%
- NAUSEA AND VOMITING, subjects n ([1]; sequence D C A B (N = 18)): 0
- NAUSEA, subjects % ([1]; sequence D C A B (N = 18)): 0.0%
- NAUSEA, subjects n ([1]; sequence D C A B (N = 18)): 0
- Number of Subject With At Least one AE, % ([1]; sequence D C A B (N = 18)): 27.8%
- Number of Subject With No AE, % ([1]; sequence D C A B (N = 18)): 72.2%
- PARESTHESIA, subjects % ([1]; sequence D C A B (N = 18)): 5.6%
- PARESTHESIA, subjects n ([1]; sequence D C A B (N = 18)): 1
- PHARYNGITIS, subjects % ([1]; sequence D C A B (N = 18)): 0.0%
- PHARYNGITIS, subjects n ([1]; sequence D C A B (N = 18)): 0
- RASH, subjects % ([1]; sequence D C A B (N = 18)): 0.0%
- RASH, subjects n ([1]; sequence D C A B (N = 18)): 0
- DURATION ([2]; IM): 2 to 3 h
- ONSET ([2]; IM): 15 to 35 min
- DURATION ([2]; PO): 3 to 4 h
- ONSET ([2]; PO): 10 to 40 min
- DURATION ([2]; Rect): 3 to 4 h
- ONSET ([2]; Rect): 10 to 40 min
- drug excreted unchanged in the urine [3]: 30%-50%
